Assay results from the NIST ThermoML archive (doi:10.1021/je900596d).

Conditions: 323.21 K, Fluid (supercritical or subcritical phases), Vibrating tube method

FC(F)=C(F)C(F)(F)F [hexafluoropropene]
Conditions	mass density [kg/m3]
17.7 kPa	0.97
21.7 kPa	1.12
25.1 kPa	1.38
28.9 kPa	1.62
32.8 kPa	1.83
36.6 kPa	2.07
40.3 kPa	2.22
44.1 kPa	2.51
47.8 kPa	2.68
51.6 kPa	2.99
55.2 kPa	3.08
58.9 kPa	3.32
62.6 kPa	3.51
66.1 kPa	3.74
69.7 kPa	3.92
73.2 kPa	4.09
76.7 kPa	4.26
80.2 kPa	4.49
83.7 kPa	4.72
87.1 kPa	4.86
90.6 kPa	5.07
94.4 kPa	5.41
98.1 kPa	5.54
101.5 kPa	5.74
105.2 kPa	6.02
112.5 kPa	6.44
116.2 kPa	6.58
119.7 kPa	6.8
123.2 kPa	7
126.7 kPa	7.23
130.2 kPa	7.42
133.8 kPa	7.66
137.6 kPa	7.92
141.6 kPa	8.08
145.4 kPa	8.32
149.3 kPa	8.52
153.2 kPa	8.77
157.1 kPa	8.98
160.9 kPa	9.22
164.8 kPa	9.47
168.8 kPa	9.71
172.6 kPa	9.88
176.5 kPa	10.13
180.3 kPa	10.38
184.3 kPa	10.62
188.1 kPa	10.76
195.8 kPa	11.28
199.7 kPa	11.49
203.6 kPa	11.86
207.4 kPa	12.01
211.1 kPa	12.24
215 kPa	12.39
218.8 kPa	12.6
222.7 kPa	12.84
226.4 kPa	13.16
230.2 kPa	13.39
233.8 kPa	13.5
237.7 kPa	13.84
241.4 kPa	14.08
245.2 kPa	14.29
249 kPa	14.46
252.7 kPa	14.72
260.3 kPa	15.25
268.1 kPa	15.67
272.2 kPa	15.98
276.4 kPa	16.15
280.6 kPa	16.35
284.7 kPa	16.67
288.7 kPa	16.87
292.9 kPa	17.17
297.1 kPa	17.47
301.3 kPa	17.8
305.4 kPa	17.98
309.6 kPa	18.21
313.9 kPa	18.45
318 kPa	18.81
322 kPa	19
326.2 kPa	19.25
330.3 kPa	19.52
334.5 kPa	19.75
338.7 kPa	20.05
342.9 kPa	20.26
347 kPa	20.58
351.2 kPa	20.86
355.4 kPa	21.13
359.5 kPa	21.34
363.6 kPa	21.63
367.7 kPa	21.82
371.9 kPa	22.12
376 kPa	22.33
380 kPa	22.69
384.1 kPa	22.94
388.2 kPa	23.18
392.3 kPa	23.49
396.4 kPa	23.69
404.4 kPa	24.26
408.5 kPa	24.53
412.5 kPa	24.78
416.5 kPa	25
420.6 kPa	25.28
424.6 kPa	25.54
432.5 kPa	26.08
436.6 kPa	26.31
444.4 kPa	26.88
448.4 kPa	27.13
487.5 kPa	29.75
499 kPa	30.39
510.4 kPa	31.18
521.8 kPa	31.98
533.3 kPa	32.74
544.4 kPa	33.53
555.6 kPa	34.31
566.8 kPa	35.09
577.8 kPa	35.78
588.8 kPa	36.55
599.7 kPa	37.33
610.7 kPa	38.21
621.5 kPa	38.96
632.3 kPa	39.67
643 kPa	40.4
653.8 kPa	41.25
664.3 kPa	42.12
675 kPa	42.78
687.2 kPa	43.61
697.7 kPa	44.47
708.1 kPa	45.16
721.9 kPa	46.18
735.5 kPa	47.22
747.6 kPa	48.18
759.6 kPa	49.01
769.7 kPa	49.86
784.6 kPa	50.99
799.5 kPa	52.13
814.1 kPa	53.28
